This note sets out measurements from patent US20100137313A1 (ASTRAZENECA AB, priority 2008, published 2010).

Sequence of S. pneumoniae Topoisomerase IV ATPase (ParE) (Q59961 whole entry): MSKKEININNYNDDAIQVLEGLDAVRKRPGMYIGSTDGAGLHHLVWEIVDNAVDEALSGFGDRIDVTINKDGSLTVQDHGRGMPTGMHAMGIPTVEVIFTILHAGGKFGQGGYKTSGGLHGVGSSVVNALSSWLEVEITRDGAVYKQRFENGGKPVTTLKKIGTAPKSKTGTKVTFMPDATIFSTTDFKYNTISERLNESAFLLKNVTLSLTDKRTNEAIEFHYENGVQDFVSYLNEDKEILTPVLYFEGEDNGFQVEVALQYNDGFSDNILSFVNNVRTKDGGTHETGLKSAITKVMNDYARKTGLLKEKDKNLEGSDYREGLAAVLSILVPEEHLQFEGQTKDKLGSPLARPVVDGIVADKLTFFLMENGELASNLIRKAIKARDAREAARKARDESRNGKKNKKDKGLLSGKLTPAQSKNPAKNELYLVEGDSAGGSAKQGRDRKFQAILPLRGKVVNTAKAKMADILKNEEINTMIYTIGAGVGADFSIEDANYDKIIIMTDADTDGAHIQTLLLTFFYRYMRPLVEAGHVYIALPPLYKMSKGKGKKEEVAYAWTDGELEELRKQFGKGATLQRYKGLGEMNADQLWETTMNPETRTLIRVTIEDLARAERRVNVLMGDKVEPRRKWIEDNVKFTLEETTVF

The assay concerns the target S. pneumoniae Topoisomerase IV ATPase (ParE) (Streptococcus pneumoniae serotype 4, UniProt Q59961). The assay is described as follows: S. pneumoniae Topoisomerase IV ATPase inhibition. It counts as biochemical. The settings on record: values marked * are an average of two or more data points, read-out: % Inh (13 μM) of S. pneumoniae Topoisomerase IV ATPase. The protocol:
S. pneumoniae Topoisomerase IV ATPase Inhibition Activity: Compounds may be tested for inhibition of S. pneumoniae ParE ATPase activity using an ammonium molybdate/malachite green-based phosphate detection assay (Lanzetta, P. A., L. J. Alvarez, P. S. Reinach, and O. A. Candia, 1979, 100: 95-97). Assays are performed in multiwell plates in 30 μl reactions containing: 20 mM Tris buffer pH 8.0, 50 mM ammonium acetate, 8.0 mM magnesium chloride, 0.5 mM ethylenediaminetetraacetic acid, 5% glycerol, 5 mM 1,4-Dithio-DL-threitol, 0.005% Brij-35, 5 μg/ml sheared salmon sperm DNA, 1.25 nM S. pneumoniae ParE, 160 μM ATP, and test compound in dimethylsulfoxide. Reactions are quenched with 30 μl of ammonium molybdate/malachite green detection reagent containing 1.2 mM malachite green hydrochloride, 8.5 mM ammonium molybdate tetrahydrate, and 1 M hydrochloric acid. Plates are read in an absorbance plate reader at 650 nm and percent inhibition values are calculated using dimethylsulfoxide (2%)-containing reactions as 0% inhibition and EDTA-containing ([…]) reactions as 100% inhibition controls. An IC50 measurement of compound potency for each compound can be determined from reactions performed in the presence of 10 different compound concentrations.
Many of the compounds of the invention were tested in an assay substantially similar to the assays described above for measuring the inhibition of E.coli GyrB ATPase, E. coli Topoisomerase IV ATPase, S. aureus GyrB ATPase, and S. pneumoniae Topoisomerase IV ATPase, and had IC50 values of <200 μM in one or more assays.
Consider `COc1cc(Nc2ncc(-c3cccc(/C=C/C(=O)O)c3)c(-n3nc(C(F)(F)F)cc3C)n2)cc(C(F)(F)F)c1` [Example 880, (E)-3-(3-(2-(3-methoxy-5-(trifluoromethyl)phenylamino)-4-(5-methyl-3-(trifluoromethyl)-1H-pyrazol-1-yl)pyrimidin-5-yl)phenyl)acrylic acid], for which the inhibition at 13 µM came to 91%. Under `CCOC(=O)/C=C/c1cccc(-c2cnc(Nc3ccc(F)c(Cl)c3)nc2N2CCN(C)CC2)c1` [Example 170, (E)-ethyl 3-(3-(2-(3-chloro-4-fluorophenylamino)-4-(4-methylpiperazin-1-yl)pyrimidin-5-yl)phenyl)acrylate] stands 46%; under `CCNC(=O)c1ccc(-c2cnc(Nc3ccc(F)c(Cl)c3)nc2NCCCN(C)C)cc1` [Example 363, 4-(2-(3-chloro-4-fluorophenylamino)-4-(3-(dimethylamino)propylamino)pyrimidin-5-yl)-N-ethylbenzamide], 57.9%; under `COc1cc(C)cc(Nc2ncc(-c3cnc(OC)c(C(=O)NS(C)(=O)=O)c3)c(-n3ccc(C(F)(F)F)n3)n2)c1` [Example 856, 2-methoxy-5-{2-[(3-methoxy-5-methylphenyl)amino]-4-[3-(trifluoromethyl)-1H-pyrazol-1-yl]pyrimidin-5-yl}-N-(methylsulfonyl)pyridine-3-carboxamide], 100%. In the case of `Cc1cc(C)cc(Nc2ncc(-c3ccc4c(c3)C(=O)NS4(=O)=O)c(-n3ccc(C(F)(F)F)n3)n2)c1` [Example 833, 5-{2-[(3,5-dimethylphenyl)amino]-4-[3-(trifluoromethyl)-1H-pyrazol-1-yl]pyrimidin-5-yl}-1,2-benzothiazol-3(2H)-one 1,1-dioxide] it was 100%; in that of `COc1cc(Nc2ncc(-c3cnc(OC)c(C(=O)O)c3)c(-n3nc(C(F)(F)F)cc3C)n2)cc(OC)c1` [Example 677, 5-{2-[(3,5-dimethoxyphenyl)amino]-4-[5-methyl-3-(trifluoromethyl)-1H-pyrazol-1-yl]pyrimidin-5-yl}-2-methoxypyridine-3-carboxylic acid], 100%.

With `CCOC(=O)c1cncc(-c2cnc(Nc3ccc(F)c(Cl)c3)nc2N2CCC2)c1` [Example 126, ethyl 5-[4-(azetidin-1-yl)-2-[(3-chloro-4-fluorophenyl)amino]pyrimidin-5-yl]pyridine-3-carboxylate], the inhibition at 13 µM turned out to be 35.7%.

In the case of `CCOC(=O)c1cncc(-c2cnc(Nc3ccc(F)c(Cl)c3)nc2NC(COC)COC)c1` [Example 149, ethyl 5-(2-(3-chloro-4-fluorphenylamino)-4-(1,3-dimethoxypropan-2-ylamino)pyrimidin-5-yl)nicotinate], the inhibition at 13 µM amounted to 82.2%.

Consider `Cc1cc(C(F)(F)F)nn1-c1nc(Nc2cccc(C#N)c2)ncc1-c1cccc(/C=C/C(=O)O)c1` [Example 693, (2E)-3-(3-{2-[(3-cyanophenyl)amino]-4-[5-methyl-3-(trifluoromethyl)-1H-pyrazol-1-yl]pyrimidin-5-yl}phenyl)prop-2-enoic acid], for which the inhibition at 13 µM was 97%.

On to `CCn1cc(-c2cnc(Nc3ccc(F)c(Cl)c3)nc2-n2nc(C(F)(F)F)cc2C)cc(C(=O)O)c1=O` [Example 1086, 5-(2-(3-Chloro-4-fluorophenylamino)-4-(5-methyl-3-(trifluoromethyl)-1H-pyrazol-1-yl)pyrimidin-5-yl)-1-ethyl-2-oxo-1,2-dihydropyridine-3-carboxylic acid], for which the inhibition at 13 µM is 92%. Under `O=C(O)CCC(=O)Nc1ccc(-c2cnc(Nc3ccc(F)c(Cl)c3)nc2N2CCOCC2)cc1` [Example 478, 4-[(4-{2-[(3-chloro-4-fluorophenyl)amino]-4-(morpholin-4-yl)pyrimidin-5-yl}phenyl)amino]-4-oxobutanoic acid] stands 100%; under `CNc1ncc(-c2cnc(Nc3cc(OC)cc(OC)c3)nc2-n2nc(C(F)(F)F)cc2C)cc1C(=O)O` [Example 591, 5-(2-(3,5-dimethoxyphenylamino)-4-(5-methyl-3-(trifluoromethyl)-1H-pyrazol-1-yl)pyrimidin-5-yl)-2-(methylamino)nicotinic acid], 100%. For `Fc1ccc(Nc2ncc(-c3cncnc3)c(NCCc3ccccn3)n2)cc1Cl` [Example 44, N^2-(3-chloro-4-fluorophenyl)-N^4-(2-pyridin-2-ylethyl)-5-pyrimidin-5-ylpyrimidine-2,4-diamine], the inhibition at 13 µM worked out at 78.4%. In the case of `COc1cc(Nc2ncc(-c3cnc(OCCNC(C)=O)c(C(=O)NS(C)(=O)=O)c3)c(-n3nc(C(F)(F)F)cc3C)n2)cc(OC)c1` [Example 969, 2-(2-acetamidoethoxy)-5-(2-(3,5-dimethoxyphenylamino)-4-(5-methyl-3-(trifluoromethyl)-1H-pyrazol-1-yl)pyrimidin-5-yl)-N-(methylsulfonyl)nicotinamide] it was 100%. Under `COc1cc(Nc2ncc(-c3cnc(OC)c(C(=O)NS(=O)(=O)CCCN4CCOCC4)c3)c(-n3nc(C(F)(F)F)cc3C)n2)cc(OC)c1` [Example 821, 5-{2-[(3,5-dimethoxyphenyl)amino]-4-[5-methyl-3-(trifluoromethyl)-1H-pyrazol-1-yl]pyrimidin-5-yl}-2-methoxy-N-{[3-(morpholin-4-yl)propyl]sulfonyl}pyridine-3-carboxamide] stands 100%; under `O=C1CCCN1CCCNc1nc(Nc2ccc(F)c(Cl)c2)ncc1-c1cncnc1` [Example 34, 1-[3-[[2-[(3-chloro-4-fluorophenyl)amino]-5-pyrimidin-5-ylpyrimidin-4-yl]amino]propyl] pyrrolidin-2-one], 84.3%; under `CCOC(=O)c1cn(CCOC)c2ccc(-c3cnc(Nc4ccc(F)c(Cl)c4)nc3N3CCOCC3)cc2c1=O` [Example 175, ethyl 6-(2-(3-chloro-4-fluorophenylamino)-4-morpholinopyrimidin-5-yl)-1-(2-methoxyethyl)-4-oxo-1,4-dihydroquinoline-3-carboxylate], 80%. As to `O=C(O)/C=C/c1cccc(-c2cnc(Nc3ccc(F)c(CO)c3)nc2N2CCOCC2)c1` [Example 516, (2E)-3-{3-[2-{[4-fluoro-3-(hydroxymethyl)phenyl]amino}-4-(morpholin-4-yl)pyrimidin-5-yl]phenyl}prop-2-enoic acid], the inhibition at 13 µM stood at 98%. Under `CCCNc1nc(Nc2ccc(F)c(Cl)c2)ncc1-c1cncc(C(=O)OCC)c1` [Example 90, 5-[2-(3-Chloro-4-fluoro-phenylamino)-4-propylamino-pyrimidin-5-yl]-nicotinic acid ethyl ester] stands 24.6%. Turning to `O=C(O)c1cc(-c2cnc(Nc3ccc(F)c(Cl)c3)nc2-n2ccc(C(F)(F)F)n2)cnc1OCCc1ccncc1` [Example 872, 5-(2-(3-chloro-4-fluorophenylamino)-4-(3-(trifluoromethyl)-1H-pyrazol-1-yl)pyrimidin-5-yl)-2-(2-(pyridin-4-yl)ethoxy)nicotinic acid], the inhibition at 13 µM stood at 100%. On to `CCOC(=O)c1ccc(-c2cnc(Nc3ccc(F)c(Cl)c3)nc2NCCCN(C)C)cc1` [Example 6, Ethyl 4-(2-(3-chloro-4-fluorophenylamino)-4-(3-(dimethylamino)propylamino)pyrimidin-5-yl)benzoate], for which the inhibition at 13 µM is 102%.
